A short description of this series: Degradation of time-dependent coupling polymer components in simulated gastric fluid. The format is physicochemical. The note with it: seven days. An excerpt:
Additional preferred polymers for use as coupling polymers are time-dependent polymers, that is, polymers that degrade in a time-dependent manner in the gastric environment.

The values that follow come from US12109305B2, “Materials architecture for gastric residence systems” (Lyndra Therapeutics, Inc., priority 2016, dated 2024).

Turning to `CC(=O)OCC(COC(C)=O)OC(C)=O` [triacetin], the “degradation / retention of strength in simulated gastric fluid” value is reported as “degrades in a time-dependent manner”.
